Measured values: PubChem BioAssay AID1963873 (Molecular Pharmacology Branch, DTP, NCI, 2024)

Test system: 276233-004-R-J1-PDC KRAS spheroids with HUVEC/MSC, viability
Experiment: Anticancer human tumor 276233-004-R-J1-PDC patient-derived colon adenocarcinoma cell line growth inhibition [KRAS2]
Details: for viability, T/C: stronger effect = lower value
Excerpt: Multicellular complex tumor spheroid response to RAS pathway inhibitors in combination with a targeted agents in patient-derived cell lines with oncogenic KRAS variants from multiple cancer types
A high-throughput screen of multi-cell type tumor spheroids was designed to identify active combinations of targeted small molecules and KRAS pathway inhibitors. Complex spheroids include a stromal component modeled by human endothelial cells (HUVEC) and fibroblasts modeled by human mesenchymal stem cells (MSCs). The concentration ranges selected for each drug and investigational agent were based upon clinically achievable concentrations if the clinical Cmax of the agent was known.
Compounds. The drugs and investigational agents: BI-3406 (NSC825286), BAY-293 (NSC824723), batoprotafib (TNO155; NSC825523), sotorasib (AMG 510; NSC818433), MRTX1257 (NSC819558), elimusertib (BAY 1895344; NSC800525), molibresib (GSK525762; NSC774829), temuterkib (LY3214996; NSC803410), venetoclax (NSC766270), alisertib (NSC759677), olaparib (NSC753686), talazoparib (NSC767125), erdafitinib (NSC781556), ipatasertib (NSC767898), cabozantinib (NSC761068), nintedanib (NSC756659), abemaciclib (NSC768073), docetaxel (NSC628503), trametinib (NSC758246), and sapanisertib (NSC764658) were obtained from the National Cancer Institute (NCI) Developmental Therapeutics Program Chemical Repository. The FDA-approved anticancer drug set is available from the Developmental Therapeutics Program. […] The stock solutions were prepared in dimethyl sulfoxide (DMSO, Sigma-Aldrich, St. Louis, MO, cat. D2650) at 800-fold the tested concentration and stored at -70 degrees C prior to their use. All drugs and investigational agents were tested over a range starting from a high concentration at or near the clinical Cmax and decreasing in half-log increments. If the clinical Cmax for an agent had not been determined, the highest concentration tested was 10 microM.
Cell Culture. All cells were maintained in an incubator at 37 degrees C and 5% CO2 with 95% humidity. The PDC lines were cultured according to standard operating procedures established by the NCI PDMR (https://pdmr.cancer.gov/sops/default.htm). Briefly, all PDCs were thawed and cultured in Matrigel-coated flasks prepared with a working solution of 1X Ham's F-12 nutrient mix, without supplementation (Invitrogen, Waltham, MA, cat. 11765054), 100 U/mL penicillin-streptomycin (Invitrogen, cat. 15140122), and 2.5% Matrigel (Corning Inc., Corning, NY, cat. 354248) for the first three passages. All PDCs were cultured in complete DMEM/F-12 media containing advanced DMEM/F-12 (Invitrogen, cat. 12634028), 4.9% defined fetal bovine serum, heat inactivated (HyClone Laboratories Inc., Logan, UT, cat. SH30070.03HI), 389 ng/mL hydrocortisone (Sigma-Aldrich, cat. H4001), 9.7 ng/mL human EGF recombinant protein (Invitrogen, cat. PHG0313), 23.4 microg/mL adenine (Sigma-Aldrich, cat. A2786), 97.3 U/mL penicillin-streptomycin (Invitrogen, cat. 15140122), 1.9 mM L-glutamine (Invitrogen, cat. 25030081), and 9.7 microM Y-27632 dihydrochloride (Tocris Bioscience, Bristol, United Kingdom, cat. 1254). The PDCs were cultured in complete DMEM/F12 media without 9.7 microM Y-27632 dihydrochloride for at least two passages prior to the screen. The established cell line HOP-62 was cultured in RPMI 1640 medium, HEPES (Invitrogen, cat. 22400105) with 10% defined fetal bovine serum (HyClone Laboratories Inc., cat. SH30070.03) and 2 mM L-glutamine (Invitrogen, cat. 25030081). The pooled donor HUVEC were cultured in endothelial cell growth medium 2 (PromoCell, Heidelberg, Germany, cat. C-22011) and the hMSC were cultured in mesenchymal stem cell growth medium 2 (PromoCell, cat. C-28009). For all experiments, HUVEC and hMSC were used at passages </=5, while the malignant cell lines were used at passages </=15. […]

[1] = curve of first compound, second compound 0.1 µM
[2] = curve of first compound, second compound 0.316 µM
[3] = curve of first compound, second compound 1 µM
[4] = curve of first compound, second compound 3.16 µM
[5] = curve of first compound, second compound 10 µM
[6] = second compound 0.1 µM, first compound 0.0316 µM
[7] = second compound 0.1 µM, first compound 0.1 µM
[8] = second compound 0.1 µM, first compound 0.316 µM
[9] = second compound 0.1 µM, first compound 1 µM
[10] = second compound 0.1 µM, first compound 3.16 µM
[11] = second compound 0.1 µM, first compound 10 µM
[12] = second compound 0.316 µM, first compound 0.0316 µM
[13] = second compound 0.316 µM, first compound 0.1 µM
[14] = second compound 0.316 µM, first compound 0.316 µM
[15] = second compound 0.316 µM, first compound 1 µM
[16] = second compound 0.316 µM, first compound 3.16 µM
[17] = second compound 0.316 µM, first compound 10 µM
[18] = second compound 1 µM, first compound 0.0316 µM
[19] = second compound 1 µM, first compound 0.1 µM
[20] = second compound 1 µM, first compound 0.316 µM
[21] = second compound 1 µM, first compound 1 µM
[22] = second compound 1 µM, first compound 3.16 µM
[23] = second compound 1 µM, first compound 10 µM
[24] = second compound 3.16 µM, first compound 0.0316 µM
[25] = second compound 3.16 µM, first compound 0.1 µM
[26] = second compound 3.16 µM, first compound 0.316 µM
[27] = second compound 3.16 µM, first compound 1 µM
[28] = second compound 3.16 µM, first compound 3.16 µM
[29] = second compound 3.16 µM, first compound 10 µM
[30] = second compound 10 µM, first compound 0.0316 µM
[31] = second compound 10 µM, first compound 0.1 µM
[32] = second compound 10 µM, first compound 0.316 µM
[33] = second compound 10 µM, first compound 1 µM
[34] = second compound 10 µM, first compound 3.16 µM
[35] = second compound 10 µM, first compound 10 µM
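Also: cells exposed to agents for seven days before viability read.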
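For viability, T/C in this document: 100% = DMSO vehicle control wells and lower values mean fewer viable cells.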

Structure (SMILES) | IC50 [1] [nM] | IC50 [2] [nM] | IC50 [3] [nM] | IC50 [4] [nM] | IC50 [5] [nM] | viability, T/C [6] [%] | viability, T/C [7] [%] | viability, T/C [8] [%] | viability, T/C [9] [%] | viability, T/C [10] [%] | viability, T/C [11] [%] | viability, T/C [12] [%] | viability, T/C [13] [%] | viability, T/C [14] [%] | viability, T/C [15] [%] | viability, T/C [16] [%] | viability, T/C [17] [%] | viability, T/C [18] [%] | viability, T/C [19] [%] | viability, T/C [20] [%] | other results
COC(=O)c1ccc2c(C(=Nc3ccc(N(C)C(=O)CN4CCN(C)CC4)cc3)c3ccccc3)c(O)[nH]c2c1 + COc1cc2nc(C)nc(NC(C)c3cc(N)cc(C(F)(F)F)c3)c2cc1OC1CCOC1 | > 10000 | > 10000 | > 10000 | 2750 | < 31.6 | 96.3 | 77 | 80.4 | 83.1 | 70 | 83.7 | 94.1 | 71.5 | 74.2 | 65.3 | 70 | 74.2 | 78.6 | 80.9 | 70 | viability, T/C [21]: 70.2%; viability, T/C [22]: 62.9%; viability, T/C [23]: 61.6%; viability, T/C [24]: 72.1%; viability, T/C [25]: 66.6%; viability, T/C [26]: 58.7%; viability, T/C [27]: 51.5%; viability, T/C [28]: 54.7%; viability, T/C [29]: 6.87%; viability, T/C [30]: 24.1%; viability, T/C [31]: 25.9%; viability, T/C [32]: 30.9%; viability, T/C [33]: 20.9%; viability, T/C [34]: 13.8%; viability, T/C [35]: 1.87%
Cn1nccc1Nc1nccc(-c2cc3c(s2)C(C)(C)N(CCN2CCOCC2)C3=O)n1 + CC1OCC2(CCN(c3cnc(Sc4ccnc(N)c4Cl)c(N)n3)CC2)C1N | 2310 | 830 | 476 | 320 | < 31.6 | 86.9 | 82.3 | 76.8 | 70.3 | 37.7 | 47 | 79.6 | 76.5 | 65.5 | 47.2 | 33.1 | 28.8 | 78.5 | 73.2 | 56.2 | viability, T/C [21]: 38%; viability, T/C [22]: 26%; viability, T/C [23]: 22.2%; viability, T/C [24]: 60.7%; viability, T/C [25]: 62.3%; viability, T/C [26]: 49.4%; viability, T/C [27]: 30.3%; viability, T/C [28]: 19.7%; viability, T/C [29]: 16.4%; viability, T/C [30]: 48.4%; viability, T/C [31]: 38.2%; viability, T/C [32]: 32.1%; viability, T/C [33]: 23.5%; viability, T/C [34]: 19%; viability, T/C [35]: 16.9%
CN(C)C/C=C/C(=O)Nc1cc2c(Nc3ccc(F)c(Cl)c3)ncnc2cc1O[C@H]1CCOC1 |  |  |  |  |  |  |  |  |  |  |  |  |  |  |  |  |  |  |  |  | viability, T/C (compound 0.000316 µM): 98.5% [middle of 5 runs]; viability, T/C (compound 0.001 µM): 92.7% [middle of 5 runs]; viability, T/C (compound 0.00316 µM): 90.8% [middle of 5 runs]; viability, T/C (compound 0.01 µM): 95.8% [middle of 5 runs]; viability, T/C (compound 0.0316 µM): 97.7% [middle of 5 runs]; viability, T/C (compound 0.1 µM): 90% [middle of 5 runs]; IC50 (curve of compound): > 100 nM
